The conditions of data set [1]: reported in prior art; cited from earlier work.
Data set [2] concerns Aspergillus fumigatus strain IFM41944. The data set is described as follows: Treatment of infection, protocol 1: mice infected with Aspergillus fumigatus, oral treatment, survival. The data set is classed as in vivo. The settings on record: Aspergillus fumigatus, IFM41944; ICR male mice, i.v. infection 1 × 10⁷ conidia; oral one hour after infection and following four days once a day; survival at 7th day; Litchfield-Wilcoxon; read-out: ED₅₀. As to the method: Mice infected with Aspergillus fumigatus were administered selected compounds of the invention orally and their therapeutic effect was measured. Stated specifically, ICR male mice (4-wk old) in groups each consisting of 10 animals were injected with Aspergillus fumigatus strain IFM41944 by injecting it into the tail vein at a concentration of 1 × 10⁷ conidia per animal. Each test compound was administered orally to the mice one hour after the infection and for the following four continuous days on a once-a-day basis. The number of mice that survived at the 7th day of the infection was counted (the day of infection was day "zero") and the ED₅₀ of each test compound was calculated by the Litchfield-Wilcoxon method to estimate its therapeutic effect.

A short description of data set [3]: Toxicity test, repeated oral administration to mice. The settings on record: 4-wk old mice, 5 consecutive days, 100 mg/kg. The data set is classed as in vivo. The method, then: The four selected compounds of the invention (those prepared in Examples 1, 2, 9 and 30) were administered orally to 4-wk old mice for 5 consecutive days at a dose of 100 mg/kg.
The nature of data set [4]: Solubility (usefulness as injections). Type of data set: physicochemical.

Consider `CON=CC(C)(C)C(O)(Cn1cncn1)c1ccc(Cl)cc1` (racemic) [Bay R 3783, (±)-3-(4-chlorophenyl)-2,2-dimethyl-3-hydroxy-4-(1,2,4-triazole-1-yl)butanol-oxime O-methylether], for which the “hepatotoxicity as a side effect” value in data set [1] is on record as “has hepatotoxicity as a side effect”.

Take `CC(C)C(=NOCn1cncn1)C1(C(O)(Cn2cncn2)c2ccc(F)cc2F)CC1` (stereo not shown) [Example 30, 1-[1-[1-(2,4-difluorophenyl)-1-hydroxy-2-(1H-1,2,4-triazol-1-yl)ethyl]cyclopropyl]-2-methyl-1-propanone O-[(1H-1,2,4-triazol-1-yl)methyl]oxime]: the ED50 in data set [2] was determined as 43.4 mg/kg. For the same molecule, in data set [3], the evidence for abnormality entry was “no evidence for abnormality”. Moreover, the solubility entry in data set [4] is recorded as “good enough solubility to be useful as injections”.

The values above are taken from EP0670315A1, “Triazole oxime derivatives having antimycotic acitivity” (priority 1994, dated 1995).
